Measured values as given in patent US4156731A, “Heterocyclic oxime compounds and carbamoyloxime derivatives” (priority 1976, dated 1979).

Tests used:
Assay type in all cases: in vivo
Parameters in all cases: key: A: Excellent control; B: Partial control; C: No control
[1] = system: two spotted mite (Tetranychus urticae Koch); assay: Mite Foliage Spray Test; conditions: 500 ppm foliage spray, six days
Protocol: (§1) Selected species of the new compounds were evaluated to determine their pesticidal activity against mites and certain insects, including anaphid, a caterpillar, a beetle and a fly.
(§2) Suspensions of the test compounds were prepared by dissolving one gram of compound in 50 milliliters of acetone in which had been dissolved 0.1 gram (10 percent of the weight of compound) of an alkylphenoxy polyethoxyethanol surfactant, as an emulsifying or dispersing agent. The resulting solution was mixed into 150 milliliters of water to give roughly 200 milliliters of a suspension containing the compound in finely divided form. The thus-prepared stock suspension contained 0.5 percent by weight of test compound. The test concentrations in parts per million by weight employed in the tests described hereinbelow were obtained by appropriate dilutions of the stock suspension with water. The test procedures were as follows:
Adults and nymphal stages of the two spotted mite (Tetranychus urticae Koch), reared on Tendergreen bean plants at 80±5 per cent relative humidity, were the test organisms. Infested leaves from a stock culture were placed on the primary leaves of two bean plants six to eight inches in height, growing in a two-and-a-half inch clay pot. 150-200 mites, a sufficient number for testing, transferred from the excised leaves to the fresh plants in a period of twenty four hours. Following the twenty four hour transfer period, the excised leaves were removed from the infested plants. The test compounds were formulated by diluting the stock suspension with water to give a suspension with water to give a suspension containing 500 parts of test compound per million parts of final formulation. The potted plants (one pot per compound) were placed on a revolving turntable and sprayed with 100-110 milliliters of test compound formulation by use of a DeVilbiss spray gun set at 40 psig. air pressure. This application, which lasted for 25 seconds, was sufficient to wet the plants to run-off. As a control, 100-110 milliliters of a water solution containing acetone and emulsifier in the same concentrations as the test compound formulation, but containing no test compound, were also sprayed on infested plants. The sprayed plants were held at 80±5 per cent relative humidity for six days, after which a mortality count of motile forms were made. Microscopic examination for motile forms was made on the leaves of the test plants. Any individual which was capable of locomotion upon prodding, was considered living.
(§3) In these tests the pesticidal activity of the compounds against aphid, mite, Southern Armyworm, Mexican Bean Beetle, and house fly was rated as follows: […]

[2] = system: bean aphid (Aphis fabae Scop.); assay: Bean Aphid Foliage Spray Test; conditions: 500 ppm foliage spray, 24 hour holding period
Protocol: as §1, §2
Bean Aphid Foliage Spray Test
Adults and nymphal stages of the bean aphid (Aphis fabae Scop.) reared on potted dwarf nasturtium plants at 65°-70° F. and 50-70 per cent relative humidity, constituted the test insects. For testing purposes, the number of aphids per pot was standardized to 100-150 by trimming plants containing excess aphids.
The test compounds were formulated by diluting the stock suspension with water to give a suspension containing 500 parts of test compound per million parts of final formulation.
The potted plants (one pot per compound tested) infested with 100-150 aphids, were placed on a revolving turntable and sprayed with 100-110 milliliters of test compound formulation by use of a DeVilbiss spray gun set at 40 psig. air pressure. This application, which lasted 25 seconds, was sufficient to wet the plants to run-off. As a control, 100-110 milliliters of a water-acetone-emulsifier solution containing no test compound were also sprayed on infested plants. After spraying, the pots were placed on their sides on a sheet of white standard mimeograph paper which had been previously ruled to facilitate counting. Temperature and humidity in the test room during the 24 hour holding period were 65°-70° F. and 50-70 per cent, respectively. Aphids which fell into the paper and were unable to remain standing after being uprighted were considered dead. Aphids remaining on the plants wre observed closely for movement and those which were unable to move the length of the body upon stimulator by prodding were considered dead. Per cent mortality was recorded for various concentration levels.
as §3

[3] = system: house flies (Musca domestica, L.); assay: Fly Bait Test; conditions: adults, 500 ppm in sugar bait, twenty four hours
Protocol: as §1, §2
Four to six day old adult house flies (Musca domestica, L.) reared according to the specifications of the Chemical Specialities Manufacturing Association (Blue Book, McNair-Dorland Co., NY., 1954; pages 234-244, 261) under controlled conditions of 80°±5° F. and 50±5 per cent relative humidity, were the test insects. The flies were immobilized by anesthetizing with carbon dioxide and twenty five immobilized individuals, males and females, were transferred to a cage consisting of a standard food stainer about five inches in diameter which was inverted over a wrapping-paper-covered surface. The test compounds were formulated by diluting the stock suspension with a 10 per cent (by weight) sugar solution to give a suspension containing 500 parts of test compound per million parts of final formulation, by weight. Ten milliliters of the test formulation were added to a souffle cup containing a one inch square of an absorbent cotton pad. This bait cup was introduced and centered on the blotting paper under the food strainer prior to admitting the anesthetized flies. The caged flies were allowed to feed on the bait for twenty four hours, at a temperature of 80°±5° F. and the relative humidity of 50±5 per cent.
as §3

[4] = system: southern armyworm (Prodenia Eridania, (Cram.)); assay: Southern Armyworm Leaf Spray Test; conditions: larvae, 500 ppm leaf spray, three days
Protocol: as §1, §2
Southern Armyworm Leaf Spray Test
Larvae of the southern armyworm (Prodenia Eridania, (Cram.), reared on Tendergreen bean plants at a temperature of 80°±5° F. and a relative humidity of 50±5 per cent, constituted the test insects.
The test compounds were formulated by diluting the stock suspension with water to give a suspension containing 500 parts of test compound per million parts of final formulation. Potted Tendergreen bean plants of standard height and age were placed on a revolving turntable and sprayed with […] of test compound formulation by use of a DeVilbiss spray gun set at 10 psig. air pressure.
This application, which lasted 25 seconds, was sufficient to wet plants to run-off. As a control, 100-110 milliliters of a water-acetone-emulsifier solution containing no test compound were also sprayed on infested plants. When dry, the paired leaves were separated and each one was placed in a 9 centimeter Petric dish lined with moistened filter paper. Five randomly selected larvae were introduced into each dish and the dishes were closed. The closed dishes were labeled and held at 80°-85° F. for three days. Although the larvae could easily consume the whole leaf within twenty-four hours, no more food was added. Larvae which were unable to move the length of the body, even upon stimulation by prodding, were considered dead. Per cent mortality was recorded for various concentration levels.
as §3

[5] = system: Mexican bean beetle (Epilachna varivestis, Muls.); assay: Mexican Bean Beetle Leaf Spray Test; conditions: fourth instar larvae, 500 ppm leaf spray, three days
Protocol: as §1, §2
Mexican Bean Beetle Leaf Spray Test
Fourth instar larvae of the Mexican bean beetle (Epilachna varivestis, Muls.), reared on Tendergreen bean plants at a temperature of 80°±5° F. and 50±5 per cent relative humidity, were the test insects.
The test compounds were formulated by diluting the stock suspension with water to give a suspension containing 500 parts of test compound per million parts of final formulation. Potted Tendergreen bean plants of standard height and age were placed on a revolving turntable and sprayed with 100-110 milliliters of test compound formulation by use of DeVilbiss spray gun set at 10 psig air pressure. This application, which lasted 25 seconds, was sufficient to wet plants to run-off. As a control, 100-110 milliliters of a water-acetone-emulsifier solution containing no test compound were also sprayed on infested plants. When dry, the paired leaves were separated and each was placed in a 9 centimeter Petri dish lined with moistened filter paper. Five randomly selected larvae were introduced into each dish, and the dishes were closed. The closed dishes were labeled and held at a temperature of […]. for three days. Although the larvae could easily consume the leaf within 24 to 48 hours, no more food was added. Larvae which were unable to move the length of the body, even upon stimulation, were considered dead.
as §3

Row | SMILES | Mite pesticidal activity rating [1] | Bean Aphid pesticidal activity rating [2] | House-Fly pesticidal activity rating [3] | Southern Armyworm pesticidal activity rating [4] | Mexican Bean Beetle pesticidal activity rating [5]
1 | CCCCN=C1SC(=NOC(=O)N(C)SC(Cl)(Cl)Cl)C(C)(C)S1 [LIII] | A | A | A | C | A
2 | CCCCN=C1SC(=NOC(=O)NC)C(C)(C)S1 [LII] | C | A | A | B | A
3 | CNC(=O)ON=C1SC(=NC2CCCCC2)SC1(C)C [LIV] | B | A | A | C | B
4 | CNC(=O)ON=C1SC(=NS(=O)(=O)c2ccc(C)cc2)SC1(C)C [LIX] | C | C | C | C | C
5 | CN(SC(Cl)(Cl)Cl)C(=O)ON=C1SC(=NC(C)(C)C)SC1(C)C [LI] | B | A | A | C | A
6 | CN(SC(Cl)(Cl)Cl)C(=O)ON=C1SC(=NS(C)(=O)=O)SC1(C)C [LVIII] | C | C | B | C | B
7 | CNC(=O)ON=C1SC(=NS(C)(=O)=O)SC1(C)C [LVII] | C | B | B | B | B
8 | CN(C)N=C1SC(=NOC(=O)N(C)SC(Cl)(Cl)Cl)C(C)(C)S1 [LVI] | A | A | A | A | A
9 | CNC(=O)ON=C1SC(=C(C#N)C#N)SC1(C)C [LXII] | C | C | C | C | C
10 | CN(SSC(C)(C)C)C(=O)ON=C1SC(=C(C#N)C#N)SC1(C)C [LXIV] | C | A | B | B | A
11 | CNC(=O)ON=C1SC(=NC#N)SC1(C)C [LXIX] | C | C | C | C | C
12 | CCOC(=O)C(C#N)=C1SC(=NOC(=O)NC)C(C)(C)S1 [LXI] | C | C | C | C | A
13 | CNC(=O)ON=C1SC(=CC(C)=O)SC1(C)C [LXVIII] | C | A | A | A | A
14 | CNC(=O)ON=C1SC(=C[N+](=O)[O-])SC1(C)C [LXVII] | C | B | A | A | A
15 | CNC(=O)ON=C1SC(=C(C#N)c2ccccc2)SC1(C)C [LXVI] | C | C | C | C | B
16 | CCOC(=O)C(C#N)=C1SC(=NOC(=O)N(C)SC(Cl)(Cl)Cl)C(C)(C)S1 [LXV] | C | B | A | C | A
17 | CN(Sc1ccc(C(C)(C)C)cc1)C(=O)ON=C1SC(=C(C#N)C#N)SC1(C)C [LXXIII] | B | A | C | C | A
18 | CN(SSc1ccc(C(C)(C)C)cc1)C(=O)ON=C1SC(=C(C#N)C#N)SC1(C)C [LXXII] | C | A | C | C | A
